This note sets out measurements from patent EP4656178A1, “COSMETIC USE OF ATRACTYLODES LANCEA ROOT EXTRACT” (Provital, S.A., priority 2024, dated 2025).

Holding throughout (format): cell-based
The test system of assay [1] is reconstructed human pigmented epidermis (RHPE). The assay can be described thus: Depigmentation test: melanin quantification by imaging. Conditions: daily application day 9 to day 17, in comparison with Control, read-out: melanin reduction. Here is the method:
The depigmenting potential of the ALRE was assessed on reconstructed human pigmented epidermis (RHPE). Said cells were specifically generated for screening depigmenting agents or skin lightening products prior to human in vivo testing, as disclosed in Hall et al., Reconstructed human pigmented skin/epidermis models achieve epidermal pigmentation through melanocore transfer, Pigment Cell Melanoma Res., 2022, 35, 425-435. On day 9, the medium was replaced with a daily renewal, incorporating test compounds: the ALRE at concentrations of 0.2, 0.1, and 0.05 mg/ml, comparing its effect with 10 µM Retinol. In this assessment, […] DMSO was used as a negative control and 250 µM Kojic acid as a positive control. Images for melanin evaluation were captured on day 17 using Leica EZ4 W stereo microscope (Leica Microsystems, Wetzlar, Germany) and quantified as follows: all imaging processing steps were performed with the imaging software Fiji/lmageJ v 1.52n (Schindelin et al., Fiji - an Open Source platform for biological image analysis, Nat. Methods, 2012, 9(7), doi:10-1038). […] Statistical differences were determined by two-way ANOVA using R version 4.3.2 (R: A Language and Environment for Statistical Computing, n.d.). […]

Another assay deals with T1, human TRPV1 channel (Homo sapiens, UniProt Q8NER1).
T1 construct: expressed in transfected cells
T1 sequence (Q8NER1 whole entry): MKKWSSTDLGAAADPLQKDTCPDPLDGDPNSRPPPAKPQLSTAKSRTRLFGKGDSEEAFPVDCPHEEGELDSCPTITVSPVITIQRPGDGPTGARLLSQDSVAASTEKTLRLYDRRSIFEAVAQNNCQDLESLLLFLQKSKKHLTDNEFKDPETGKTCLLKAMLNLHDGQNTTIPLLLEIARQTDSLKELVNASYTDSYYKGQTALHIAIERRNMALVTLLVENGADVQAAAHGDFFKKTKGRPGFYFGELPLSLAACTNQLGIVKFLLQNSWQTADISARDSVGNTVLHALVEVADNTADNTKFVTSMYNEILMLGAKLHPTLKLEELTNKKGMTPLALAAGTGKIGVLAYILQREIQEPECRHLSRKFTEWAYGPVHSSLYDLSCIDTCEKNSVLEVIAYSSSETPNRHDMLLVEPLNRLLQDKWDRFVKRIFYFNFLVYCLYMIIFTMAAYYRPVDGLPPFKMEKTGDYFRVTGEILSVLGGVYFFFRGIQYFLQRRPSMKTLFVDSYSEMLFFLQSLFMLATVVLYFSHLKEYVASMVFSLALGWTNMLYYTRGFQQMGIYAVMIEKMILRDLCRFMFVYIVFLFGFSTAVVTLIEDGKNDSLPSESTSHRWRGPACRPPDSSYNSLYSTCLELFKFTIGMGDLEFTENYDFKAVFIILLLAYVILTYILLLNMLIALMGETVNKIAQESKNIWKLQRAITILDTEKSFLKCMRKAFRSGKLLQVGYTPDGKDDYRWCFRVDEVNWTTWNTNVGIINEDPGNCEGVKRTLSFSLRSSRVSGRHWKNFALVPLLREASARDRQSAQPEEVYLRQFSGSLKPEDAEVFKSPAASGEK
The assay can be described thus: TRPV1 irritation test: intracellular calcium influx (Fluo4-NW) in TRPV1-overexpressing HEK cells. As to conditions: 1-hour incubation, normalized to 1 µM capsaicin (100%) and assay buffer (0%). The source says:
In this TRPV1 test, compositions comprising different amounts of the A. lancea root extract (ALRE) were compared with retinol and tested on Human Embryonic Kidney (HEK) cells stably expressing this TRPV1 channel.
Cytosolic calcium influx was monitored using Fluo4-NW (Thermo Fisher Scientific) mix dye following manufacturer's instructions.
Activation of the TRPV1 receptor causes a Ca^+2 influx, and a direct relationship between fluorescence and TRPV1 receptor response can be established.
Fluorescence signal (AFU) was measured after excitation at 485 nm and emission at 520 nm using ClarioStar Plus microplate reader from BMG LABTECH.
The effect of tested compounds on intracellular Ca^+2 influx was studied 48 hours after cell seeding. The medium of TRPV1-overexpressing HEK cells was replaced by 90 µL/well of Fluo4-NW dye solution in assay buffer containing probenecid. […]
After 1 hour incubation at 37 °C, the plate was kept for 15 minutes at room temperature inside the fluorescence plate reader. After that, the program started with a stop in cycle 3 to add test compounds and capsazepine, 0.2% Triton X-100 (maximal signal control for dye loading) and assay buffer (minimal signal) and the fluorescence signal was recorded for 7 additional cycles. […] The signal was recorded until cycle 20. […]
For orientation: Calcium assays in cells follow changes in intracellular calcium, usually with a dye or a luminescent sensor.

The test system of another assay is Human Dermal Fibroblasts. Conditions: 6 h, 10 µM retinol or 0.05 mg/ml ALRE. Here is the method:
To better understand the cellular pathways and processes that were modulated by the ALRE in human dermal fibroblasts, and its relevance with respect to retinol, a comprehensive and comparative assessment of gene expression by transcriptome analysis was conducted.
Three biological triplicates of Human Dermal Fibroblasts (HDF; ZenBio Inc., Research Triangle Park, NC, USA) were stimulated for 6 h with either 10 µM retinol or 0.05 mg/ml ALRE. RNA was extracted with the TRIzol® Plus RNA Purification Kit, including DNase I treatment step, according to manufacturer's instructions. RNA quality and quantity were inspected by spectrophotometric measurement using a NanoDrop™ One spectrophotometer (Thermo Fisher Scientific, Pittsburgh, PA, USA).
Messenger RNA was purified from total RNA using poly-T oligo-attached magnetic beads. After fragmentation, the first strand cDNA was synthesized using random hexamer primers, followed by the second strand cDNA synthesis using either dUTP for directional library or dTTP for non-directional library. For the non-directional library, it was ready after end repair, A-tailing, adapter ligation, size selection, amplification, and purification. For the directional library, it was ready after end repair, A-tailing, adapter ligation, size selection, USER enzyme digestion, amplification, and purification . The library was checked with Qubit and real-time PCR for quantification and bioanalyzer for size distribution detection. Quantified libraries were pooled and sequenced (Paired-end 150 bp) on Illumina platforms, according to effective library concentration and data amount.
Obtained data were studied by bioinformatic analysis as disclosed, for example, in Liao et al, featureCounts: an efficient general purpose program for assigning sequence reads to genomic features, Bioinformatics, 2014 ,30(7), 923-30, Mortazavi et al., Mapping and quantifying mammalian transcriptomes by RNA-Seq, Nature Methods, 2008, 5(7), 621-628, and Robinson et al., edgeR: a Bioconductor package for differential expression analysis of digital gene expression data, Bioinformatics, 2010, 26(1), 139-140.
Genes involved in the following categories were studied: • 2.1.- Retinoid binding, metabolizing genes and lipid transport • 2.2.- Extracellular matrix • 2.3.- Inflammatory pathway

Where [2] appears, read: vs non-treated human fibroblast.

Structures are written as SMILES.

With `O=c1cc(CO)occ1O` [kojic acid], the inhibition at 250 µM in assay [1] (250 µM kojic acid) is 58%.

As to `CC1=C(/C=C/C(C)=C/C=C/C(C)=C/CO)C(C)(C)CCC1` [retinol], the inhibition at 10 µM in assay [1] (10 µM retinol) was determined as 76%. The intracellular calcium increase entry on human TRPV1 channel (retinol 50 µM) was “significant rise”. Further, the intracellular calcium increase result at human TRPV1 channel (retinol 100 µM) was “significant rise”. Further, in the assay on Human Dermal Fibroblasts (setting [2]), the MMP1 gene expression entry is “elevation”, the MMP12 gene expression result was “elevation”, the TIMP1 gene expression result was “significantly upregulated” and the TIMP3 gene expression result is given as “significantly upregulated”. Further, the “gene expression associated with crucial ECM proteins” value in the assay on Human Dermal Fibroblasts (vs non-treated human fibroblast (100%)) was “comparable modulation of gene expression”.
